From patent publication US20220388962A1 (Biohaven Therapeutics Ltd., priority 2019, published 2022) come the findings set out here.

Structures can show the parent of a compound that is named as a salt.

Sequence of TDP-43 (Q13148 whole entry): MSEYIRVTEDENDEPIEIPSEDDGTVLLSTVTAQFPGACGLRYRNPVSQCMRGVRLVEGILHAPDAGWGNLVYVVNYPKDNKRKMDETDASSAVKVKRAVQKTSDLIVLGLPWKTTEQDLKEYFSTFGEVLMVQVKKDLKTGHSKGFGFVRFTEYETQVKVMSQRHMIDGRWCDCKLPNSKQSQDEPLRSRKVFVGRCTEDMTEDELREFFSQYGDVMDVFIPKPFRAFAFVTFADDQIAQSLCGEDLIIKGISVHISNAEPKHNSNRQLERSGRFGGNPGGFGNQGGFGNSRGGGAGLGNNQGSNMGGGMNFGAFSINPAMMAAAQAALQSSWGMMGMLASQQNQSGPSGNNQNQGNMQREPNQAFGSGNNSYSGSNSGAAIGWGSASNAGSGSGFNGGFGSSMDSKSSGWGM

For the first assay, the target named is TDP-43 (Homo sapiens, UniProt Q13148). Put plainly: TDP-43-DNA alpha-screen assay (bt-TAR-32 displacement). The assay is classed as binding. To be noted: bt-TAR-32 0.125 nM, 15 ng/ml TDP-43. How it is done:
Alpha-screen assay: Displacement of bt-TG6 binding was measured using AlphaScreen technology as previously described (Cassel, J. A. et al., Journal of Biomolecular Screening, 2010, 15, 1099-1106; Cassel, J. A.; Reitz, A. B. et al. The effects of small molecule inhibitors of nucleic acid binding to TDP-43 on TDP-43 metabolism and function. Biochimie, 2012, 94, 1974-1981).
Test compounds were diluted in assay buffer (25 mM Tris [pH 7.4], 0.1% bovine serum albumin [BSA], 0.1% Triton X-100) at 4× the desired final concentration. Dilutions of test compound (50 to 0.02 μM in half-log dilutions with a no compound control well) were pre-incubated with TDP-43 (5 μl of 60 ng/mL) pre-bound to AlphaScreen® anti-GST acceptor beads (5 μl of 40 μg/mL) in 15 μl volume for 30 minutes at 23° C. with shaking. Assays were initiated by the addition of 5 μl bt-TAR-32 (5′-CTGCTTTTTGCCTGTACTGGGTCTCTGTGGTT-3′) 0.5 nM pre-bound to AlphaScreen® strepavidin donor beads (40 μg/mL). After incubation in the dark at 23° C. for 90 minutes with shaking, the AlphaScreen® signal was measured on a Synergy 2 plate reader (BioTek, Winooski, Vt.). IC50 values were determined from nonlinear regression fits of the data to a Sigmoidal dose response variable slope model in GraphPad Prism. Final assay conditions are 25 mM Tris [pH 7.4], 0.1% bovine serum albumin [BSA], 0.100 Triton X-100, 15 ng/ml TDP-43, 0.125 nM bTAR32, 10 ug/ml […].
What is called IC50 is the midpoint of a concentration-inhibition curve. Consider `COc1ccc(-c2cc(NCCCN(C)CCCN(C)C)c3ccccc3n2)cc1` [Example 1, N^1-(3-((2-(4-Methoxyphenyl)quinolin-4-yl)amino)propyl)-N^1,N^3,N^3-trimethyl propane-1,3-diamine], for which the IC50 is 280 nM. As to `CNCCCN(C)CCCNc1cc(-c2ccc(OC)cc2)nc2ccccc12` [Example 2, 2-(4-Methoxyphenyl)-N-(3-{methyl[3-(methylamino)propyl]-amino}propyl) quinolin-4-amine], the IC50 worked out at 110 nM. For the compound `COc1ccc(-c2cc(NCCCN(C)CCCN)c3ccccc3n2)cc1` [Example 3, N^1-(3-Aminopropyl)-N^3-(2-(4-methoxyphenyl)quinolin-4-yl)-N^1-methylpropane-1,3-diamine], the IC50 is 80 nM. Still for that read-out and setting: in the case of `COc1ccc(-c2cc(NCCCNCCCN3CCCCC3)c3ccccc3n2)cc1` [Example 4, N^1-(2-(4-Methoxyphenyl)quinolin-4-yl)-N^3-(3-(piperidin-1-yl)propyl) propane-1,3-diamine trihydrochloride] it was 220 nM.

In the case of `COc1ccc(-c2cc(NCCCN(C)CCCN3CCCCC3)c3ccccc3n2)cc1` [Example 5, N^1-(2-(4-methoxyphenyl)quinolin-4-yl)-N^3-methyl-N^3-(3-(piperidin-1-yl)propyl)propane-1,3-diamine trihydrochloride], the IC50 amounted to 240 nM. On to `COc1ccc(-c2cc(NCCCNCCCNC(=O)OC(C)(C)C)c3ccccc3n2)cc1` [Example 6, tert-Butyl N-{3-[(3-{[2-(4-methoxyphenyl)quinolin-4yl]amino}propyl)amino]propyl}carbamate], for which the IC50 was determined as 760 nM. Turning to `COc1ccc(-c2cc(NCCCN(C)CCCN)c3c(F)cccc3n2)cc1` [Example 7, N^1-(3-aminopropyl)-N^3-(5-fluoro-2-(4-methoxyphenyl)quinolin-4-yl)-N^1-methyl propane-1,3-diamine], the IC50 was determined as 220 nM. Still for that read-out and setting: in the case of `COc1ccc(-c2cc(NCCCNCCCN)c3ccccc3n2)cc1` [Example 8, N-{3-[(3-Aminopropyl)amino]propyl}-2-(4-methoxyphenyl)quinolin-4-amine trihydrochloride] it was 80 nM; in that of `COc1ccc(-c2cc(NCCCN(C)CCCN)c3cc(OC)ccc3n2)cc1` [Example 9, N^1-(3-Aminopropyl)-N^3-(6-methoxy-2-(4-methoxyphenyl)quinolin-4-yl)-N^1-methylpropane-1,3-diamine], 50 nM; in that of `COc1ccc(-c2cc(NCCCN(C)CCCN)c3ccccc3n2)c(C)c1` [Example 10, N^1-(3-Aminopropyl)-N^3-(2-(2-methyl-4-methoxyphenyl)quinolin-4-yl)-N^1-methylpropane-1,3-diamine], 650 nM. On the same count and under the same terms, next, `CNCCCCN(C)CCCNc1cc(-c2ccc(OC)cc2)nc2ccccc12` [Example 12, N^1-(3-((2-(4-Methoxyphenyl)quinolin-4-yl)amino)propyl)-N^1,N^4-dimethyl butane-1,4-diamine trihydrochloride]: 80 nM. The same measure, in the same setting: next, `COc1ccc(-c2cc(NCCCN(C)CCCN(C)CCF)c3ccccc3n2)cc1` [Example 13, N^1-(2-fluoroethyl)-N^3-(3-((2-(4-methoxyphenyl)quinolin-4-yl)amino)propyl)-N^1,N^3-dimethylpropane-1,3-diamine]: 330 nM. In the case of `COc1ccc(-c2cc(NCCCNCCCO)c3ccccc3n2)cc1` [Example 14, 3-((3-((2-(4-Methoxyphenyl)quinolin-4-yl)amino)propyl)amino)-propan-1-ol], the IC50 was determined as 900 nM.

On to `COCCCNCCCNc1cc(-c2ccc(OC)cc2)nc2ccccc12` [Example 15, N-(3-(3-methoxypropylamino)propyl)-2-(4-methoxyphenyl)quinolin-4-amine], for which the concentration for half-maximal inhibition (IC50) was 800 nM. Same read-out and setting: next, `COc1ccc(-c2cc(NCCCN(CCCN)C(C)=O)c3ccccc3n2)cc1` [Example 16, N-(3-(2-(4-Methoxyphenyl)quinolin-4-ylamino)propyl)-N-(3-aminopropyl) acetamide]: 1420 nM; `COc1ccc(-c2cc(NCCCN(CCCN(C)C)CC3CC3)c3ccccc3n2)cc1` [Example 17, N^1-(Cyclopropylmethyl)-N^1-(3-((2-(4-methoxyphenyl)quinolin-4-yl)amino)propyl)-N^3,N^3-dimethylpropane-1,3-diamine]: 180 nM; `COc1ccc(-c2cc(NCCCN(CCCN(C)C)CC3CN(C(=O)OC(C)(C)C)C3)c3ccccc3n2)cc1` [Example 18, tert-Butyl 3-(((3-(dimethylamino)propyl)(3-((2-(4-methoxyphenyl)quinolin-4-yl)amino)propyl)amino)methyl)azetidine-1-carboxylate]: 1410 nM.

Turning to `COc1ccc(-c2cc(NCCCN(CCCN(C)C)CC3CCN(C(=O)OC(C)(C)C)CC3)c3ccccc3n2)cc1` [Example 19, tert-Butyl 4-(((3-(dimethylamino)propyl)(3-((2-(4-methoxyphenyl)quinolin-4-yl)amino)propyl)amino)methyl)piperidine-1-carboxylate], the IC50 came out at 950 nM. Still for that read-out and setting: next, `COc1ccc(-c2cc(NCCCN(CCCN(C)C)CC3CNC3)c3ccccc3n2)cc1` [Example 20, N^1-(Azetidin-3-ylmethyl)-N^1-(3-((2-(4-methoxyphenyl)quinolin-4-yl)amino)propyl)-N^3,N^3-dimethylpropane-1,3-diamine]: 130 nM.

As to `COc1ccc(-c2cc(NCCCN(CCCN(C)C)CC3CCNCC3)c3ccccc3n2)cc1` [Example 21, N^1-(3-((2-(4-Methoxyphenyl)quinolin-4-yl)amino)propyl)-N^3,N^3-dimethyl-N^1-(piperidin-4-ylmethyl)propane-1,3-diamine], the IC50 was 120 nM. Still for that read-out and setting: next, `COc1ccc(-c2cc(NCCCNCc3cncn3C)c3ccccc3n2)cc1` [Example 22, N^1-(2-(4-Methoxyphenyl)quinolin-4-yl)-N^3-((1-methyl-1H-imidazol-5-yl)methyl)propane-1,3-diamine]: 680 nM; `COc1ccc(-c2cc(NCCCN3CC4CNCC4C3)c3ccccc3n2)cc1` (stereo not drawn) [Example 23, N-(3-(Hexahydropyrrolo[3,4-c]pyrrol-2(1H)-yl)propyl)-2-(4-methoxyphenyl) quinolin-4-amine]: 240 nM; `COc1ccc(-c2cc(NCCCN(C)Cc3ccc(N)nc3)c3ccccc3n2)cc1` [Example 24, N^1-((6-Aminopyridin-3-yl)methyl)-N^3-(2-(4-methoxyphenyl)-quinolin-4-yl)-N^1-methylpropane-1,3-diamine]: 1110 nM. Same read-out and setting: next, `COc1ccc(-c2cc(NCCCN(C)CC(O)CN(C)C)c3ccccc3n2)cc1` (stereo not drawn) [Example 25, 1-(Dimethylamino)-3-((3-((2-(4-methoxyphenyl)quinolin-4-yl)-amino)propyl)(methyl)amino)propan-2-ol]: 220 nM. For the compound `COc1ccc(-c2cc(NCCCN(C)CCCN3CCC(O)CC3)c3ccccc3n2)cc1` [Example 26, 1-(3-((3-((2-(4-Methoxyphenyl)quinolin-4-yl)amino)propyl)-methylamino)propyl) piperidin-4-ol], the IC50 is 150 nM.

The same assay, now with this note: side-by-side, three independent assays, bt-TAR32; average.
For `COc1ccc(-c2cc(NCCCN(C)CCCN)c3ccccc3n2)cc1` [Example 3, N^1-(3-Aminopropyl)-N^3-(2-(4-methoxyphenyl)quinolin-4-yl)-N^1-methylpropane-1,3-diamine], the “increase in potency versus (XXVIII), average” value came to 14 ×.

The same assay, now with this note: side-by-side, three independent assays, bt-TAR32; range.
Turning to `COc1ccc(-c2cc(NCCCN(C)CCCN)c3ccccc3n2)cc1` [Example 3, N^1-(3-Aminopropyl)-N^3-(2-(4-methoxyphenyl)quinolin-4-yl)-N^1-methylpropane-1,3-diamine], the “increase in potency versus (XXVIII)” value is given as 11-18 ×.
